The source of these data is US20150004157A1, “OSTEOPONTIN ISOFORM A INHIBITORS AND METHODS OF USE” (NEW YORK UNIVERSITY, priority 2012, published 2015).

Assay [1] deals with NSCLC cell surface. Briefly: NSCLC cell surface binding / competitive binding assay with fluorescent (FAM) labeled peptide. The following applies: for binding of fluorescently labeled peptide to the surface of the NSCLC cell lines: 100 nM FAM labeled peptide, 1 hour, FIG. 6A; for displacement of fluorescent labeled exon 4 peptide from the NSCLC cell surface by competitor: recombinant protein as competitor, 30 minutes, FIGS. 6B, 6C. The format is cell-based. The procedure: More particularly, the peptide mimic sequence was selected that contained the PDAV region, along with a scrambled sham of the same length. Peptides were constructed and fluorescent (FAM) labeled by Think peptides (Proimmune, Sarasota, Fla.). NSCLC cell surface binding was assayed by seeding ten thousand NSCLC cells per well in a 96-well plate and allowing them to sit for overnight at 37° C. The cells were treated with 100 nM of FAM labeled Exon4 and FAM labeled scrambled peptide for 1 hour and then gently washed with 0.1% BSA in PBS for three times followed by treating with recombinant Osteopontin at 1 uM, 500 nM, 250 nM, 125 nM, 62.5 nM and 31.25 nM for 30 minutes. The cells are then washed thrice with 0.1% BSA in PBS and measured the fluorescence at […].

In assay [2] the test system is H358, A549 and H460 cell lines. Briefly: In vitro proliferation assay. The assay is classed as cell-based. On the procedure:
(§1) In vitro invasion, migration, proliferation and soft agar colony formation assays were performed using the H358, A549 and H460 cell lines as previously described (Goparaju et al. “Functional Heterogeneity of Osteopontin Isoforms in Non-small Cell Lung Cancer,” J Thorac Oncol 5:1516-23 (2010), which is hereby incorporated by reference in its entirety) with 100 nM of exon 4 peptide or scrambled sham peptide in experimental medium. Experiments were performed in triplicates and comparisons of effect were made between peptide and sham within each cell line.

In assay [3] the test system is H358. Briefly: In vitro functional assays in H358 over-expressing full-length OPNa. The format is cell-based. The following applies: H358, addition of the exon 4 peptide. On the procedure:
as §1
The effects of mutated OPN and the exon 4 peptide in H358, a NSCLC cell line with low endogenous OPN expression, were insightful. This cell line has low malignant potential; however, malignant properties are increased by over-expression of full-length OPNa, but not by over-expression of OPNc or the PDAV-deleted mutant. Further, the tumorigenic effects of full-length OPNa over-expression are abolished by addition of the exon 4 peptide in this cell line.

The subject of assay [4] is H358, A549 and H460 cell lines. Briefly: Apoptosis assay. The assay is classed as cell-based.
Assay [5] relates to A549 cells. As to the kind of experiment: Cisplatin sensitivity assay (Cell Titer Blue survival). The assay is classed as cell-based. The following applies: 100 nM peptide, cisplatin concentrations of 0.1-0.8 μM/ml, 48 h, FIG. 7E. On the procedure: The effect of exon 4 peptide on sensitivity to cisplatin was evaluated by plating 10,000 A549 cells/well in a 96-well plate in triplicates. Five hours later, the medium was changed to DMEM containing 100 nM of exon 4 peptide, 100 nM of scrambled sham peptide, or no peptide. Fifteen minutes later, the medium was changed to DMEM containing […] of cisplatin for 48 h at 37° C. The cells were then assayed for survival by adding […] of Cell Titer Blue reagent for 1 h. The fluorescence was read at 560/590λ.

In assay [6] the test system is H358, A549 and H460 cell lines. As to the kind of experiment: In vitro invasion assay. The format is cell-based. On the procedure:
as §1

For assay [7], the system named is EMT targets in H358, A549 and H460 cell lines. As to the kind of experiment: Relative expression of EMT targets by quantitative RT-PCR in peptide treated cells. The format is cell-based. The source says:
Here, mRNA was extracted from peptide treated cells and the relative expression of EMT targets evaluated by quantitative RT-PCR.

Assay [8] deals with membrane-associated protein complex on NSCLC cells (un-described cell surface receptor for OPN exon 4; H358, A549 and H460 cell surface). Briefly: cell-based or functional assay.
Setting [9] is: H358 cells with low endogenous OPN expression.

No end group written: not given here.

Turning to “WQKPAPLDTDPKVYANS (Scrambled Sham Peptide) [scrambled sham control of the same length as the peptide mimic, reference compound]”, in assay [1], the “binding of fluorescently labeled peptide to the surface of the NSCLC cell lines” value is on record as “does not”.

Regarding “KYPDAVATWLNPDPSQK (also: FAM label) [exon 4 peptide]”, the proliferation result in assay [2] (setting [9]) was “less impact”; in assay [2] (cells with high endogenous OPN expression (A549 and H460), 100 nM peptide in media, FIG. 7A), “decreased”. For the same molecule, the “tumorigenic effects of full-length OPNa over-expression” value in assay [3] is “abolished”. For the same molecule, the apoptosis result is “less impact” in assay [4] (setting [9]); “increased” in assay [4] (cells with high endogenous OPN expression (A549 and H460), peptide in media, FIG. 7C). In assay [5], the “decrease in cell viability compared to untreated or scrambled peptide (cisplatin sensitivity)” value came to 2 fold. Also, the invasive capacity entry in assay [6] (FIG. 7D) is on record as “decrease”. Besides, the invasion result is listed as “less impact” in assay [6] (setting [9]); “decreased” in assay [6] (cells with high endogenous OPN expression (A549 and H460), 100 nM peptide in media, FIGS. 7B and 7D). The “impact of exogenous rOPNa on invasion” value in assay [6] (exon 4 peptide added to exogenous rOPNa, FIG. 7D) is reported as “blocks”. Besides, the “relative expression of TFGb1-r” value in assay [7] (A549 and H460 cell lines, FIG. 9A) was “significant decrease”. The “relative expression of N-cadherin” value in assay [7] (A549 and H460 cell lines, FIG. 9B) is on record as “significant decrease”. In addition, the “relative expression of desmoplakin” value in assay [7] (A549 and H460 cell lines, FIG. 9C) is “significant increase”. The “relative expression of cytokeratin-20” value in assay [7] (A549 and H460 cell lines, FIG. 9D) was “significant increase”. Further, in assay [7] (H358 cell line with low endogenous OPN), the “relative expression of the same EMT markers (TFGb1-r, N-cadherin, desmoplakin, cytokeratin-20)” value is “lesser impact”. The “binding of fluorescently labeled peptide to the surface of the NSCLC cell lines” value in assay [1] is reported as “specifically binds”.

For “rOPNa: recombinant full-length OPN (rOPNa, R&D, Minneapolis, Minn.)”, the “displacement of fluorescent labeled exon 4 peptide from the NSCLC cell surface by competitor” value is listed as “displaced by molar equivalents” in assay [1] and “able to compete the peptide off the cell surface” in assay [1] (listed as recombinant OPN).

In assay [8], KYPDAVATWLNPDPSQK (also: FAM label, position not given here) showed a fold decrease in cell viability under cisplatin (cisplatin sensitivity, A549) of 2 fold.
